Test results taken from paper PMC5920098, “Identification of the allosteric P2X7 receptor antagonist [^11C]SMW139 as a PET tracer of microglial activation” (Scientific Reports, 2018).
Entries after “also recorded” stand apart in the source; their conditions may differ.

Columns and labels:
hP2X7R = molecular target: T1, hP2X7R (Homo sapiens, UniProt Q99572); assay: PET imaging in rats locally overexpressing hP2X7R in right striatum; type: in vivo, rat; details: 30 mg·kg^−1 s.c., 45 min prior to tracer injection
T1 construct: 3xFLAG (3flag); expressed in transfected cells; host or cells: rat striatum (female Wistar rats), transduced in vivo with the AAV vector rAAV_3flag-hP2X7R
T1 sequence (Q99572 1-595): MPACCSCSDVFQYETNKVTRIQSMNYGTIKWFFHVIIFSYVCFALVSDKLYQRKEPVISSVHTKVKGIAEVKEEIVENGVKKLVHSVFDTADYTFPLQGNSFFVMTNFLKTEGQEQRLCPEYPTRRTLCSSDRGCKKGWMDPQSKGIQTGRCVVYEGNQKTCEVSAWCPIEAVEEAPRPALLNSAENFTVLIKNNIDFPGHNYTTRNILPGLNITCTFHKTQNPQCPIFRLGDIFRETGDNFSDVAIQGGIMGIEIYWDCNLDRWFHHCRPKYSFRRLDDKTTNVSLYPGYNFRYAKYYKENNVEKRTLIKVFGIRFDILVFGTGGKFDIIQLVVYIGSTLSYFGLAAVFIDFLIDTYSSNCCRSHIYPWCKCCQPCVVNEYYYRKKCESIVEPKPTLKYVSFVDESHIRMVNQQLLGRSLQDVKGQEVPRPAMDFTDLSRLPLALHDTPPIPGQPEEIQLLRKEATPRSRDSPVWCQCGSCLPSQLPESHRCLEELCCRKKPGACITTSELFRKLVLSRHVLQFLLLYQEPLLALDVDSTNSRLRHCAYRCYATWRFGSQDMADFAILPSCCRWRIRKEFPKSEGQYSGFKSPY
Procedure: Uptake of [^11C]SMW139 was 1.5-fold higher in the right striatum compared with the contralateral striatum at 4–15 min p.i. (n = 3; Fig. 6A,B, and Supplementary Figure S5, 5 weeks after vector injection). […] (2.85 ± 0.69 vs. 2.30 ± 0.36 in contralateral striatum) throughout the remainder of the scanning time.
Female rats were injected with the hP2X7R expressing vector in the right striatum, and eGFP expressing vector in the left striatum, which is described in detail in the Supplementary Information. […] To confirm stable expression of hP2X7R during the time period in which PET scanning studies were conducted, autoradiography experiments were performed both prior to and following PET experiments. In a dedicated small animal PET scanner (nanoPET, Mediso Ltd.), 60 min dynamic PET scans were acquired immediately after intravenous administration of 16–20 MBq of [^11C]SMW139. […] 45 min prior to tracer injection. After data reconstruction (details in Supplementary Information), images were analysed using the freely available AMIDE software (version 0.9.2; http://amide.sourceforge.net). ROIs were drawn around ipsi- and contralateral striata. Results are expressed as standardised uptake values (SUVs) and error bars indicate standard deviation.
Stereotactic injection of viral vector […]
to a 10 µL Hamilton syringe. […]
dorsoventral -0.64 cm relative to bregma. […]
minutes before removing it slowly.
Rats were sacrificed for in
Dynamic PET imaging was performed using dedicated small animal NanoPET/CT and NanoPET/MR scanners (Mediso Ltd., Budapest, Hungary) which are equipped with identical PET components. […]
anaesthetised with 4% and 2% isoflurane in oxygen (1 L·min-1) for induction and maintenance, respectively. Rats were positioned on the scanner bed and their respiratory rate was monitored during the entire scan, and anaesthesia was adjusted whenever required. Dynamic PET scans were acquired immediately after intravenous (i.v.) administration of 16-20 MBq of [11C]SMW139 via the tail vein. For […]
hydroxypropyl)-β-cyclodextrin in water for injection 45 min prior to tracer injection. PET scans were acquired in list mode and rebinned into the following frame sequence: 4 × 5, 4 x 10, 2 x 30, 3x 60, 2 x 300, 1 x 600, 1 x 900 and 1 x 1200 s. Reconstruction was performed using a fully 3-dimensional reconstruction algorithm (Tera-TomoTM, Mediso Ltd.) with 4 iterations and 6 subsets, and an isotropic 0.4 mm voxel dimension. Images were analysed using the freely available AMIDE software (version 0.9.2; http://amide.sourceforge.net). 3D ellipsoid ROIs (dimensions x = 3.4 mm, y = 3.6 mm, z = 2.9 […]
mm) were drawn within ipsi- and contralateral striata. Results are expressed as standardised uptake values (SUVs) and error bars indicate standard deviation. SUV were calculated as follows, with cimg in MBq/mL, injected dose in MBq and bodyweight in kg:
An unpaired two-tailed t-test was used for statistical analysis of PET data, which was performed using […]
allowed to recover for 1 week after scanning. After 1 week of recovery following the final scan (12 weeks after stereotactic vector injection) animals were sacrificed, and brains were excised and stored […]
Extended single microdose toxicity study
A single microdose toxicity study according to EMEA guideline EMA/CPMP/ICH/286/1995 (December 2009) was performed in healthy Wistar rats at a 1000 times higher dose than the maximal dose […]
minimum specific activity of 18.5 GBq·µmol-1). Animals were allowed to acclimatise for 10 days, group-housed and in an enriched environment with food and water available ad libitum, and with a 12-hour light-dark cycle in a temperature controlled room.

P2X7R = molecular target: T2, P2X7R (Homo sapiens, UniProt Q99572); assay: In vitro autoradiography on post mortem human brain tissue (AD patients and controls); type: binding; details: blocker 10 µM, AD patients and controls
T2 construct: Snap frozen human post-mortem; tissue The Netherlands Brain Bank; host or cells: post mortem human temporal cortex (AD patients and non-neurological controls)
T2 sequence (Q99572 1-595): T1 sequence (Q99572 1-595)

human P2X7R = molecular target: human P2X7R; design: method as in PMID 28841278; details: cited from earlier work

Structure (SMILES)	Effect of pre-treatment on [^11C]SMW139 uptake/binding in rAAV_3flag-hP2X7R striatum (hP2X7R)	Blocking of [^11C]SMW139 binding in post mortem human brain tissue (P2X7R)	Ki (human P2X7R) [nM]
O=C(NCC1(N2CCN(c3ccccc3)CC2)CCOCC1)c1cccnc1Sc1ccccc1 [JNJ-47965567, reference compound]	down to baseline levels; also recorded: significantly decreased	fully blocked; also recorded: virtually complete blocking	–
COc1ccc(Cl)c(C(=O)NCC23CC4CC(CC(C4)C2)C3)c1 [compound 1]	–	–	9
COc1ccc(Cl)c(C(=O)NCC23CC4CC(CC(F)(C4)C2)C3)c1 [compound 2]	–	–	22
COc1ccc(Cl)c(C(=O)NCC23CC4CC(F)(CC(F)(C4)C2)C3)c1 [compound 3]	–	–	23
